Consider six compounds from patent publication US7183094B2, “Bacterial mycothiol S-conjugate amidase family” (The Regents of the University of California, priority 1999, dated 2007).

The target in assay [1] is M. tuberculosis mycothiol S-conjugate amidase (Rv1082) (Mycobacterium tuberculosis, UniProt P9WJN1). The assay can be described thus: Amidase activity of recombinant Rv1082 protein expressed in E. coli. The assay is classed as biochemical, Mycobacterium tuberculosis H37Rv. The note with it: for amidase activity: 0.1 mM (100 μM) substrate, extracts of IPTG-induced cells. How it is done:
Purification and renaturation of mycothiol S-conjugate amidase from inclusion bodies. The approach taken involved solublization of the inclusion bodies in a highly concentrated urea and DTT solution followed by […] Cells were cultured in Luria Bertani broth containing 100 μg/mL ampicillin at 37° C. to OD600=0.8 when isopropyl-β-D-thiogalactopyranoside added to 0.4 mM and the culture was shaken overnight at 25° C. Cells were pelleted by centrifugation for 10 min at 5000 g and 4° C., sonicated in 5 volumes of assay buffer on ice, and centrifuged for 5 min at 14000 g at room temperature. About 85% of the amidase activity, using MSmB as substrate, was associated with the pellet fraction which was resuspended and incubated with periodic vortexing for 1 h at 37° C. in 8 M urea containing 20 mM DTT. The suspension was centrifuged for 3 min at 14000 g and the supernatant dialyzed against 100 volumes of 25 mM HEPES chloride pH 7.5 containing 1 mM glutathione disulfide and 2 mM glutathione for 15 h, and then against 100 volumes of 25 mM HEPES chloride pH 7.5 containing 3 mM 2-mercaptoethanol for 4 h. After centrifugation, the supernatant contained soluble amidase activity and was assayed with 0.1 mM mycothiol and 0.1 mM MSmB as described above.
Alkylation of MSH with mBBr produces the fluorescent S-conjugate, MSmB, which can be quantitated by HPLC with fluorescence detection (Newton et al. 1995; Newton et al. 1996). E coli has no mycothiol metabolism and is not expected to contain mycothiol conjugate amidase endogenous proteins that would give background to these assays.
Functional and Comparative analysis of mycothiol S-conjugate amidase. […] When these extracts were assayed with 0.1 mM mycothiol as substrate, <0.002 nmol/min/mg amidase activity was observed. […] (Table 2).

For assay [2], the target named is M. smegmatis mycothiol S-conjugate amidase (Mycolicibacterium smegmatis, UniProt A0R2W9). Briefly: Inhibition of amidase cleavage of MSmB. The assay is classed as biochemical, Mycobacterium smegmatis. The note with it: 100 μM MSmB as substrate, n=2. How it is done: Tests were also conducted to determine whether mycothiol inhibits the cleavage of 100 μM MSmB by invention S-conjugate amidase. The amidase activity was decreased by 30±3, 48±3, and 89±3% (n=2) at 1, 3, and 10 mM mycothiol, respectively.
Sequence of M. smegmatis mycothiol S-conjugate amidase (A0R2W9 whole entry): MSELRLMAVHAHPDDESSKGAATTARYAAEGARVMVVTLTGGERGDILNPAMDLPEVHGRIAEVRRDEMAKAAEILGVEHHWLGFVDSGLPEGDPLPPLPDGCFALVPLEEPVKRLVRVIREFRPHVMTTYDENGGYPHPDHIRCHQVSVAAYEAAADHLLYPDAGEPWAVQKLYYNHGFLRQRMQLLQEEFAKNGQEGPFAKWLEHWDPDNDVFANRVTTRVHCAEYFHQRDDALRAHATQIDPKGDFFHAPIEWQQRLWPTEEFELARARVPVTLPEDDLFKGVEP
Preparation of Mycothiol S-conjugates. Mycothiol S-conjugates were prepared by reaction of excess electrophile with mycothiol followed by removal or reaction of excess electrophile. Stock solutions (100 mM) of electrophile were prepared in acetonitrile (NEM, iodoacetamide; Sigma) or in dimethylsulfoxide [7-diethylamino-3-(4′-maleimidylphenyl)-4-methylcoumarin (CPM, Molecular Probes), 3-(N-maleimidopropionyl)biocytin (MPB, Sigma)]. Reaction with these electrophiles at 2 mM in 25 mM *HEPES chloride pH 7.5 was initiated by addition of mycothiol to 1 mM from a 32 mM stock solution in H2O (pH˜3) and was allowed to proceed 15 min in the dark. Excess reagent was removed by extracting 3 times with an equal volume of H2O-saturated dichloromethane. A cerulenin (Sigma) stock solution (100 mM in acetonitrile) was diluted 5-fold in 25 mM HEPES chloride pH 7.5, reacted 15 min with 1 mM mycothiol, and extracted 5 times with H2O-saturated dichloromethane. Prior to extraction a 1 μL aliquot was withdrawn for reaction with mBBr and analysis of residual mycothiol by HPLC. […] Stock solutions (50 mM) of p-sulfobenzoyloxybromobimane (sBBr) and monobromotrimethylammoniobimane (qBBr) were prepared in 50% aqueous dimethylsulfoxide and diluted to 2 mM for reaction with 1 mM mycothiol in 25 mM HEPES chloride pH 7.5 for 15 min. Since these charged electrophiles cannot be extracted with dichloromethane, reaction was terminated with excess (1.1 mM) 2-mercaptoethanol.

Assay [3] concerns the target T1, purified M. smegmatis mycothiol S-conjugate amidase (Mycolicibacterium smegmatis, UniProt A0R2W9). The assay can be described thus: Substrate specificity of purified mycothiol S-conjugate amidase (GlcN-Ins production). Type of assay: biochemical, Mycobacterium smegmatis. Conditions: for Activity: GlcN-Ins production from 0.1 mM substrate by 0.022 μg purified amidase at 30 C; for Relative Activity (%): relative to MSmB taken as 100%, 0.1 mM substrate. How it is done: The specificity of the amidase for substrate was assessed by measuring the production of GlcN-Ins in most cases. A sample (5 μL) of 1 mM substrate was mixed with 40 μL of 3 mM 2-mercaptoethanol, 25 mM HEPES chloride, pH 7.5. The reaction was initiated with 5 μL of purified amidase (50-fold diluted stock, 4.4 μg ml^−1). Triplicate samples were quenched at 0, 10, and 30 min by mixing each sample with 50 μL of acetonitrile containing 5 mM NEM and incubating at 60 C for 10 min. After cooling on ice, the samples were clarified by centrifugation for 15 min at 14000 g. […]

The target of assay [4] is mycothiol S-conjugate amidase in partially purified M. smegmatis cell extract (Mycolicibacterium smegmatis, UniProt A0R2W9). Conditions: for product yielded from 1.0 equivalent of MSmB (0.1 nmol): 4 determinations at >50% conversion.
Sequence of mycothiol S-conjugate amidase in partially purified M. smegmatis cell extract (A0R2W9 whole entry): as above
Experimental: The experiment was repeated using a partially purified cell extract and samples of the incubation mixture were analyzed at intervals for the other potential product of MSmB cleavage, GlcN-Ins, as well as for MSmB and AcCySmB.
A preparation of the mycothiol S-conjugate amidase (30–50% saturated ammonium sulfate fraction chromatographed on Sephadex G-75) was used to study the stoichiometry of the reaction. Reaction was initiated by mixing a sample (9 μL, 7 μg total protein) of the preparation of the enzyme with 0.9 mL of 50 mM sodium phosphate, pH 7.5 containing 100 μM MSmB.
For determination of bimane derivatives of thiols, a sample (70 μL) of reaction mixture was removed, mixed with 4 μL 5 M methanesulfonic acid, and analyzed by HPLC without dilution.
For analysis of GlcN-Ins, a sample (2–8 μL) of the reaction mixture was mixed with enough 1M HEPES chloride pH 8 to bring the volume to 10 μl and then with 5 μL acetonitrile and 5 μL of 10 mM AccQ-Fluor reagent (6-aminoquinolyl-N-hydroxysuccinimidyl carbamate, Waters). The mixtures were incubated for 1 min at room temperature followed by 10 min at 60° C., diluted with 60 μL of water, and quantified by HPLC as previously described (S. J. Anderberg, et al. (1998) supra.).
Assay [5] deals with T1, purified M. smegmatis mycothiol S-conjugate amidase. How it is done: In vitro Enzymatic assays. […] Separation of the various modified thiols was performed by high-pressure liquid chromatography (HPLC). A sample (2–10 μL) of extract was mixed with 40 μL of 30 μM MSmB in 3 mM 2-mercaptoethanol, 25 mM N-2-hydroxyethylpiperazine-N′-2-ethanesulfonic acid (HEPES) chloride pH 7.5 and reacted […] at 30° C. before quenching the reaction with 50 μL of 40 mM methanesulfonic acid on ice. The mixture was centrifuged for 3 min at 14,000×g in a microcentrifuge at room temperature and the supernatant analyzed by HPLC without dilution. A shortened version (45 min) of HPLC method 1 of Fahey and Newton (R. C. Fahey, et al. (1987) Methods Enzymol. 143:85–96) was used for separation of MSmB and AcCySmB.

In assay [6] the test system is M. smegmatis mc^2155 cells. The assay can be described thus: M. smegmatis culture treated with mBBr: fate of mycothiol-related compounds and growth. The assay is classed as cell-based, Mycobacterium smegmatis. How it is done:
Since mBBr is known to penetrate cells rapidly and to convert intracellular thiols to their bimane derivatives (Newton, et al. (1995) supra.), the fate of mycothiol in M. smegmatis cells treated with mBBr was examined to ascertain whether the reaction shown in FIG. 1C occurs in vivo. A logarithmic phase culture of M. smegmatis was cooled on ice to ˜3° C. to reduce enzymatic reactions prior to reaction with 0.5 mM mBBr. Excess reagent was reacted with 2-mercaptoethanol and the cells were pelleted, washed, and resuspended in a small amount of ice cold medium. The cells were diluted with prewarmed medium and replaced in the shaking incubator at 37° C. (time, t=0). Samples were removed and analyzed for intracellular and extracellular mycothiol related compounds over a 4 h interval (FIG. 3).
A logarithmic phase culture of M. smegmatis was cooled on ice to ˜3° C. to reduce enzymatic reactions prior to reaction with 0.5 mM mBBr. Excess reagent was reacted with 2-mercaptoethanol and the cells were pelleted, washed, and resuspended in a small amount of ice cold medium. The cells were diluted with prewarmed medium and replaced in the shaking incubator at 37° C. (time, t=0). Samples were removed and analyzed for intracellular and extracellular mycothiol related compounds over a 4 h interval (FIG. 3).
At t=0, […] per 100 mL (3.5 μmol per g RDW) of AcCySmB was present in the cells and […] per 100 mL was found in the medium. Within 5 min the cellular AcCySmB level had fallen to […] per 100 mL and the medium level increased to 220 nmol per 100 mL. Subsequent analyses found essentially all of the AcCySmB in the medium at a level of 225–230 nmol per 100 mL, accounting for 80–90% of the original cellular mycothiol content. No MSmB appears to be exported from cells as […] (<0.5%) was detected in the medium or the cell washes. A logarithmic phase culture (1 L) of M. smegmatis mc^2155 (OD600=1.2) in 7H9 Middlebrook medium was cooled on ice to 3° C. The iced culture was incubated with mBBr (0.5 mM from a 180 mM stock solution in acetonitrile) for 20 min; excess 2-mercaptoethanol (1.0 mM) was added, and the incubation continued on ice for an additional 10 min. The cells were pelleted by centrifugation and washed twice with 200 mL of sterile, ice-cold 7H9 Middlebrook medium to remove excess bimane derivative of 2-mercaptoethanol. The cells were resuspended in 50 mL of sterile ice cold medium and the experiment was initiated (t=0) by dilution into 950 mL of prewarmed (37° C.) 7H9 Middlebrook medium. The cell suspension was shaken in an incubator (225 rpm, 37° C.) and a “t=0” sample (100 mL) was removed from the culture within one min. […]

Where [7] appears, read: 0.1 mM substrate, resolubilized crude protein extract.

A value given as a limit tells only on which side of the number the result lay.

T1 sequence (A0R2W9 whole entry): as above
Sequence of M. tuberculosis mycothiol S-conjugate amidase (Rv1082) (P9WJN1 whole entry, looked up): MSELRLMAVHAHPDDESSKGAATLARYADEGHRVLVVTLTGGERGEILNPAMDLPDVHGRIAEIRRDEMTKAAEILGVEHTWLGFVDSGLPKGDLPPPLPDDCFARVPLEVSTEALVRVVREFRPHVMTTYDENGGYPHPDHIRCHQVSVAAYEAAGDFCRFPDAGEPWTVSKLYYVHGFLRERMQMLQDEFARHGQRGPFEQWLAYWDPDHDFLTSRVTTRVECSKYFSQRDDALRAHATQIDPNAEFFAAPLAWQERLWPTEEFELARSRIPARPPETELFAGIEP

For `CC(=O)N[C@@H](CS)C(=O)N[C@H]1[C@@H](OC2[C@H](O)[C@H](O)C(O)[C@H](O)[C@H]2O)O[C@H](CO)[C@@H](O)[C@@H]1O` (stereo partly drawn) [Mycothiol, 1-D-myo-inosityl-2-(N-acetylcysteinyl)amido-2-deoxy-α-D-glucopyranoside], the amidase activity in assay [1] is under 0.002 nmol/min/mg. In assay [1] (setting [7]), the GlcN-Ins produced was under 0.0023 nmoles/min/mg protein. The “decrease of amidase activity” value in assay [2] (1 mM mycothiol) is listed as 30±3%; in assay [2] (3 mM mycothiol), 48±3%; in assay [2] (10 mM mycothiol), 89±3%. Besides, the “rate as % of the rate with 0.1 mM MSmB” value in assay [3] (2 mM mycothiol) was determined as 0.3%. The “rate of GlcN-Ins formation” value in assay [3] (2 mM mycothiol, conditions otherwise as for Table 2) was 14 ± 1 nmol/min/mg. The compound further registered an Activity in assay [3] of 4 ± 1 nmol/min/mg. For the same compound, the “Relative Activity (%)” value in assay [3] stood at 0.1%.

Turning to `CC(=O)N[C@@H](CSCc1c(C)c(=O)n2c(=O)c(C)c(C)n12)C(=O)O` [AcCySmB], the “product yielded from 1.0 equivalent of MSmB (0.1 nmol)” value in assay [4] amounted to 1.00±0.02 equivalent.

Regarding `CC(=O)N[C@@H](CSSC[C@H](NC(C)=O)C(=O)N[C@H]1[C@@H](OC2[C@H](O)[C@H](O)C(O)[C@H](O)[C@H]2O)O[C@H](CO)[C@@H](O)[C@@H]1O)C(=O)N[C@H]1[C@@H](OC2[C@H](O)[C@H](O)C(O)[C@H](O)[C@H]2O)O[C@H](CO)[C@@H](O)[C@@H]1O` (stereo partly shown) [Mycothiol disulfide], in assay [3], the Activity is 25 ± 1 nmol/min/mg and the “Relative Activity (%)” value worked out at 0.6%.

Regarding `CC(=O)N[C@@H](CSCc1c(C)c(=O)n2c(=O)c(C)c(C)n12)C(=O)N[C@H]1[C@@H](OC2[C@H](O)[C@H](O)C(O)[C@H](O)[C@H]2O)O[C@H](CO)[C@@H](O)[C@@H]1O` (stereo partly shown) [MSmB], the amidase activity in assay [1] stood at 4.1 nmol/min/mg. In assay [1] (setting [7]), the AcCysmB produced came to 5.4±0.3 nmoles/min/mg protein and the GlcN-Ins produced turned out to be 4.1±0.05 nmoles/min/mg protein. In assay [1] (recombinant M. tuberculosis amidase), the “rate enhancement relative to mycothiol (free thiol)” value was “more than 2000 fold”. Moreover, the “specific activity of pooled G-100 peak fractions” value in assay [5] (30 μM MSmB as substrate) is on record as ~3,000 nmol/min-mg protein. Also, the amidase reaction rate in assay [5] (30 μM MSmB, purified amidase) is recorded as about 3000 nmol/min/mg. Further, in assay [5] (MSmB as substrate), the Km was found to be 95 ± 8 µM and the kcat was 8 s⁻¹. In addition, in assay [3], the Activity amounted to 4480 ± 870 nmol/min/mg and the “Relative Activity (%)” value is listed as “(100) %”. The “conversion of MSmB” value in assay [4] (60 min at 23° C.) was determined as 97%.

Take `Cc1c(C)n2c(CBr)c(C)c(=O)n2c1=O` [mBBr, monobromobimane]: the A600 in assay [6] (8.5 h at 37 C after mBBr treatment) is on record as 1.6. Further, the “final A600” value in assay [6] (30 h at 37 C after mBBr treatment) was about 2.6. The “initial decrease of A600 value” in assay [6] (during the 4 h incubation after 0.5 mM mBBr treatment) is about 15%. For the same compound, in assay [6] (within the 4 h incubation, equals initial value), the A600 value recovered worked out at 1.2.

As to `N[C@H]1[C@@H](OC2[C@H](O)[C@H](O)C(O)[C@H](O)[C@H]2O)O[C@H](CO)[C@@H](O)[C@@H]1O` (stereo partly drawn) [GlcN-Ins, 1-D-myo-inosityl-2-amino-2-deoxy-α-D-glucopyranoside], the “product yielded from 1.0 equivalent of MSmB (0.1 nmol)” value in assay [4] was determined as 0.80±0.08 equivalent.
